In publication PMC3445516 (PLoS ONE, 2012):

Assays:
Experiment in all cases: Ambit kinase profiling, competition binding
ABL1(E255K) = biological target: T1, ABL1(E255K) (Homo sapiens, UniProt P00519, E255K); settings: compound concentration 10 uM, read-out: Percent Competition
T1 construct: purchased Ambit Biosciences (KINOMEscan)
From the text: (§1) Supplement pone.0044653.s004.xls, sheet "Compound 122" | column: Percent Competition

ABL1(H396P) = biological target: T2, ABL1(H396P) (Homo sapiens, UniProt P00519, H396P); settings: compound concentration 10 uM, read-out: Percent Competition
T2 construct: purchased Ambit Biosciences (KINOMEscan)
From the text: as §1

ABL2 = biological target: T3, ABL2 (Homo sapiens, UniProt P42684); settings: compound concentration 10 uM, read-out: Percent Competition
T3 construct: purchased Ambit Biosciences (KINOMEscan)
From the text: as §1

ALK = biological target: T4, ALK (Homo sapiens, UniProt Q9UM73); settings: compound concentration 10 uM, read-out: Percent Competition
T4 construct: purchased Ambit Biosciences (KINOMEscan)
From the text: as §1

AMPK-alpha1 = biological target: T5, AMPK-alpha1 (Homo sapiens, UniProt Q13131); settings: compound concentration 10 uM, read-out: Percent Competition
T5 construct: purchased Ambit Biosciences (KINOMEscan)
From the text: as §1

ARK5 = biological target: T6, ARK5 (Homo sapiens, UniProt O60285); settings: compound concentration 10 uM
T6 construct: purchased Ambit Biosciences (KINOMEscan)
From the text: as §1

BRK = biological target: T7, BRK (Homo sapiens, UniProt Q13882); settings: compound concentration 10 uM, read-out: Percent Competition
T7 construct: purchased Ambit Biosciences (KINOMEscan)
From the text: as §1

CHEK1 = biological target: T8, CHEK1 (Homo sapiens, UniProt O14757); settings: compound concentration 10 uM
T8 construct: purchased Ambit Biosciences (KINOMEscan)
From the text: as §1

CSF1R = biological target: T9, CSF1R (Homo sapiens, UniProt P07333); settings: compound concentration 10 uM, read-out: Percent Competition
T9 construct: purchased Ambit Biosciences (KINOMEscan)
From the text: as §1

DAPK2 = biological target: T10, DAPK2 (Homo sapiens, UniProt Q9UIK4); settings: compound concentration 10 uM, read-out: Percent Competition
T10 construct: purchased Ambit Biosciences (KINOMEscan)
From the text: as §1

DCAMKL2 = biological target: T11, DCAMKL2 (Homo sapiens, UniProt Q8N568); settings: compound concentration 10 uM, read-out: Percent Competition
T11 construct: purchased Ambit Biosciences (KINOMEscan)
From the text: as §1

DLK = biological target: T12, DLK (Homo sapiens, UniProt Q12852); settings: compound concentration 10 uM
T12 construct: purchased Ambit Biosciences (KINOMEscan)
From the text: as §1

DRAK1 = biological target: T13, DRAK1 (Homo sapiens, UniProt Q9UEE5); settings: compound concentration 10 uM, read-out: Percent Competition
T13 construct: purchased Ambit Biosciences (KINOMEscan)
From the text: as §1

EPHA4 = biological target: T14, EPHA4 (Homo sapiens, UniProt P54764); settings: compound concentration 10 uM, read-out: Percent Competition
T14 construct: purchased Ambit Biosciences (KINOMEscan)
From the text: as §1

EPHB2 = biological target: T15, EPHB2 (Homo sapiens, UniProt P29323); settings: compound concentration 10 uM
T15 construct: purchased Ambit Biosciences (KINOMEscan)
From the text: as §1

FLT3 = biological target: T16, FLT3 (Homo sapiens, UniProt P36888); settings: compound concentration 10 uM, read-out: Percent Competition
T16 construct: purchased Ambit Biosciences (KINOMEscan)
From the text: as §1

FYN = biological target: T17, FYN (Homo sapiens, UniProt P06241); settings: compound concentration 10 uM, read-out: Percent Competition
T17 construct: purchased Ambit Biosciences (KINOMEscan)
From the text: as §1

IKK-epsilon = biological target: T18, IKK-epsilon (Homo sapiens, UniProt Q14164); settings: compound concentration 10 uM, read-out: Percent Competition
T18 construct: purchased Ambit Biosciences (KINOMEscan)
From the text: as §1

INSR = biological target: T19, INSR (Homo sapiens, UniProt P06213); settings: compound concentration 10 uM, read-out: Percent Competition
T19 construct: purchased Ambit Biosciences (KINOMEscan)
From the text: as §1

LKB1 = biological target: T20, LKB1 (Homo sapiens, UniProt Q15831); settings: compound concentration 10 uM, read-out: Percent Competition
T20 construct: purchased Ambit Biosciences (KINOMEscan)
From the text: as §1

LTK = biological target: T21, LTK (Homo sapiens, UniProt P29376); settings: compound concentration 10 uM, read-out: Percent Competition
T21 construct: purchased Ambit Biosciences (KINOMEscan)
From the text: as §1

MAPKAPK5 = biological target: T22, MAPKAPK5 (Homo sapiens, UniProt Q8IW41); settings: compound concentration 10 uM, read-out: Percent Competition
T22 construct: purchased Ambit Biosciences (KINOMEscan)
From the text: as §1

MARK3 = biological target: T23, MARK3 (Homo sapiens, UniProt P27448); settings: compound concentration 10 uM, read-out: Percent Competition
T23 construct: purchased Ambit Biosciences (KINOMEscan)
From the text: as §1

MEK2 = biological target: T24, MEK2 (Homo sapiens, UniProt P36507); settings: compound concentration 10 uM, read-out: Percent Competition
T24 construct: purchased Ambit Biosciences (KINOMEscan)
From the text: as §1

MELK = biological target: T25, MELK (Homo sapiens, UniProt Q14680); settings: compound concentration 10 uM, read-out: Percent Competition
T25 construct: purchased Ambit Biosciences (KINOMEscan)
From the text: as §1

MST1R = biological target: T26, MST1R (Homo sapiens, UniProt Q04912); settings: compound concentration 10 uM, read-out: Percent Competition
T26 construct: purchased Ambit Biosciences (KINOMEscan)
From the text: as §1

PAK2 = biological target: T27, PAK2 (Homo sapiens, UniProt Q13177); settings: compound concentration 10 uM, read-out: Percent Competition
T27 construct: purchased Ambit Biosciences (KINOMEscan)
From the text: as §1

PDGFRA = biological target: T28, PDGFRA (Homo sapiens, UniProt P16234); settings: compound concentration 10 uM, read-out: Percent Competition
T28 construct: purchased Ambit Biosciences (KINOMEscan)
From the text: as §1

PIM1 = biological target: T29, PIM1 (Homo sapiens, UniProt P11309); settings: compound concentration 10 uM, read-out: Percent Competition
T29 construct: purchased Ambit Biosciences (KINOMEscan)
From the text: as §1

PIM2 = biological target: T30, PIM2 (Homo sapiens, UniProt Q9P1W9); settings: compound concentration 10 uM, read-out: Percent Competition
T30 construct: purchased Ambit Biosciences (KINOMEscan)
From the text: as §1

PIM3 = biological target: T31, PIM3 (Homo sapiens, UniProt Q86V86); settings: compound concentration 10 uM, read-out: Percent Competition
T31 construct: purchased Ambit Biosciences (KINOMEscan)
From the text: as §1

PIP5K2B = biological target: T32, PIP5K2B (Homo sapiens, UniProt P78356); settings: compound concentration 10 uM, read-out: Percent Competition
T32 construct: purchased Ambit Biosciences (KINOMEscan)
From the text: as §1

PKN1 = biological target: T33, PKN1 (Homo sapiens, UniProt Q16512); settings: compound concentration 10 uM, read-out: Percent Competition
T33 construct: purchased Ambit Biosciences (KINOMEscan)
From the text: as §1

PRKG2 = biological target: T34, PRKG2 (Homo sapiens, UniProt Q13237); settings: compound concentration 10 uM, read-out: Percent Competition
T34 construct: purchased Ambit Biosciences (KINOMEscan)
From the text: as §1

RET(V804M) = biological target: T35, RET(V804M) (Homo sapiens, UniProt P07949, V804M); settings: compound concentration 10 uM, read-out: Percent Competition
T35 construct: purchased Ambit Biosciences (KINOMEscan)
From the text: as §1

RIOK1 = biological target: T36, RIOK1 (Homo sapiens, UniProt Q9BRS2); settings: compound concentration 10 uM, read-out: Percent Competition
T36 construct: purchased Ambit Biosciences (KINOMEscan)
From the text: as §1

RIPK1 = biological target: T37, RIPK1 (Homo sapiens, UniProt Q13546); settings: compound concentration 10 uM, read-out: Percent Competition
T37 construct: purchased Ambit Biosciences (KINOMEscan)
From the text: as §1

[1] = biological target: T38, RPS6KA2(Kin.Dom.1-N-terminal) (Homo sapiens, UniProt Q15349); settings: compound concentration 10 uM, read-out: Percent Competition
T38 construct: RPS6KA2(Kin.Dom.1-N-terminal); purchased Ambit Biosciences (KINOMEscan)
From the text: as §1

[2] = biological target: T39, RPS6KA2(Kin.Dom.2-C-terminal) (Homo sapiens, UniProt Q15349); settings: compound concentration 10 uM, read-out: Percent Competition
T39 construct: RPS6KA2(Kin.Dom.2-C-terminal); purchased Ambit Biosciences (KINOMEscan)
From the text: as §1

TSSK1B = biological target: T40, TSSK1B (Homo sapiens, UniProt Q9BXA7); settings: compound concentration 10 uM, read-out: Percent Competition
T40 construct: purchased Ambit Biosciences (KINOMEscan)
From the text: as §1

ULK2 = biological target: T41, ULK2 (Homo sapiens, UniProt Q8IYT8); settings: compound concentration 10 uM, read-out: Percent Competition
T41 construct: purchased Ambit Biosciences (KINOMEscan)
From the text: as §1

inhibition at 10 µM (ABL1(E255K)): < 50%
inhibition at 10 µM (ABL1(H396P)): < 50%
inhibition at 10 µM (ABL2): < 50%
inhibition at 10 µM (ALK): < 50%
inhibition at 10 µM (AMPK-alpha1): < 50%
Percent Competition (ARK5): <50%
inhibition at 10 µM (BRK): < 50%
Percent Competition (CHEK1): <50%
inhibition at 10 µM (CSF1R): < 50%
inhibition at 10 µM (DAPK2): < 50%
inhibition at 10 µM (DCAMKL2): < 50%
Percent Competition (DLK): <50%
inhibition at 10 µM (DRAK1): < 50%
inhibition at 10 µM (EPHA4): < 50%
Percent Competition (EPHB2): <50%
inhibition at 10 µM (FLT3): < 50%
inhibition at 10 µM (FYN): < 50%
inhibition at 10 µM (IKK-epsilon): < 50%
inhibition at 10 µM (INSR): < 50%
inhibition at 10 µM (LKB1): < 50%
inhibition at 10 µM (LTK): < 50%
inhibition at 10 µM (MAPKAPK5): < 50%
inhibition at 10 µM (MARK3): < 50%
inhibition at 10 µM (MEK2): < 50%
inhibition at 10 µM (MELK): < 50%
inhibition at 10 µM (MST1R): < 50%
inhibition at 10 µM (PAK2): < 50%
inhibition at 10 µM (PDGFRA): < 50%
inhibition at 10 µM (PIM1): < 50%
inhibition at 10 µM (PIM2): < 50%
inhibition at 10 µM (PIM3): < 50%
inhibition at 10 µM (PIP5K2B): < 50%
inhibition at 10 µM (PKN1): < 50%
inhibition at 10 µM (PRKG2): < 50%
inhibition at 10 µM (RET(V804M)): < 50%
inhibition at 10 µM (RIOK1): < 50%
inhibition at 10 µM (RIPK1): < 50%
inhibition at 10 µM [1]: < 50%
inhibition at 10 µM [2]: < 50%
inhibition at 10 µM (TSSK1B): < 50%
inhibition at 10 µM (ULK2): < 50%
Structure (SMILES): Fc1ccc(-c2c(-c3ccncc3)[nH]c3nccnc23)cc1 [RO1155697-000-005]
